# Assay results from paper PMC4503694, “The Human Autoantibody Response to Apolipoprotein A-I Is Focused on the C-Terminal Helix: A New Rationale for Diagnosis and Treatment of Cardiovascular Disease?” (PLoS ONE, 2015).
# Assays:
# RAW cells = assay: Anti-ApoA-I IgG-induced TNF-α release in RAW mouse macrophage cell line; type: cell-based; conditions: anti-ApoA-I IgG 100 μg/ml preincubated 2 h with peptide 100 to 0.06 μg/ml; 24 h stimulation; ELISA; n = 3 (Fig 7)
# Procedure: Raw cells were seeded in 96-well plates at 2 × 10^5 cells/well in DMEM culture medium (10% heat-inactivated FCS, 50 μg/ml streptomycin, 50 U/ml penicillin) for 24 h. Anti-Apo-A1 IgG (100 μg/ml) were incubated with peptides across a concentration range from 100 μg/ml to 0.06 μg/ml for 2 h at room temperature prior addition to cells. After 24 h stimulation, mouse TNF-α was quantified in the cell supernatants by ELISA according to manufacturer’s instructions (R&D system, MN).
# Fig 7 Comparing the inhibitory potency of Peptide F and F3L1 on anti-ApoA-I IgG-induced TNF-α. Anti-ApoA-I IgG was incubated with the indicated peptide concentrations (preincubation 2 h at room temperature) prior to addition to cultured RAW cells. Levels of proinflammatory cytokines (TNF-α) were determined after 24 h culture. Mean levels (n = 3) are shown with error bars indicating the range.
# [1] = CD spectroscopy (alpha-helical content); type: physicochemical; conditions: 100 μM peptide in water with 1.25% trifluoroethanol, 20°C (Fig 2)
# Procedure: Experiments were carried out in 0.1 cm quartz cell using a Jasco J-710 spectrometer with 100 μM peptide solutions (1.25% trifluoroethanol in water) at 20°C.
# Fig 2 CD spectroscopy of peptide F3L1 indicates increased alpha-helical content. CD spectra of Peptide F and F3L1 were measured at 100μM concentration in water containing 1.25% trifluoroethanol.
# [2] = system: human monocyte-derived macrophages; assay: Anti-ApoA-I IgG-mediated IL-6 and TNF-α release from human monocyte-derived macrophages; type: cell-based
# Procedure: Human monocytes were isolated from buffy coats from healthy donors at the Geneva University Hospitals Blood Transfusion Center and differentiated into macrophages by 24 h incubation with IFN-γ (500 U/ml) in complete RPMI-1640 culture medium (10% heat-inactivated FCS, 50 μg/ml streptomycin, 50 U/ml penicillin, 2 mM L-glutamine), as previously described. Assays of anti-ApoA-I IgG-mediated release of IL-6 and TNF-α from human monocyte-derived macrophages was carried out as described previously using a previously determined optimal concentration of polyclonal goat anti-ApoA-I IgG (40 μg/ml). Endotoxin contamination in the assay was excluded using the limulus amebocyte lysate Endochrome assay. Where indicated, anti-ApoA-I IgG was pre-incubated with peptide […] (1 mg/mL) for 2 h at room temperature prior addition to the cells. Each experiment was performed on cells from […] different healthy blood donors. […] We next used a Luminex assay to measure the capacity of peptide […] to inhibit endotoxin-free anti-ApoA-I IgG-mediated proinflammatory cytokine release in human monocyte-derived macrophages (Fig 5a and 5b). As expected from previously published work, anti-ApoA-I IgG elicited a significant increase in production of both in IL-6 and TNF-α when compared to control IgG (Ctl IgG; p<0.0001 for both cytokines). […] We were unable to measure the inhibitory activity of intact purified and delipidated ApoA-I in this assay because traces of endotoxin elicit significant levels of background cytokine secretion (NV and SP, unpublished observations).  Fig 5 Peptide […] inhibits anti-ApoA-I IgG-mediated release of proinflammatory cytokines from cultured human monocyte-derived macrophages. Release of proinflammatory cytokines TNF-α (a) IL-6 (b) from human monocyte-derived macrophages induced by endotoxin-free goat polyclonal anti-ApoA-I IgG was determined with or without preincubation (2 h at room temperature) of the anti-ApoA-I IgG with peptide […] (1 mg/mL) and the corresponding scrambled peptide (Scr Pept). […] Anti-ApoA-I IgG was incubated with the indicated […] concentrations (preincubation 2 h at room temperature) prior to addition to cultured human monocyte-derived macrophages. Levels of proinflammatory cytokines were determined after 24 h culture. Experiments were repeated using cells from three different healthy donors, with results expressed as median, interquartile range (IQR) and range.
# [3] = system: anti-ApoA-I antibodies in plasma samples from three different patients; assay: Competition ELISA with plasma of three individual anti-ApoA-I-positive patients; type: binding, human; conditions: preincubated 2 h at room temperature with peptide, n = 3 (Fig 3)
# Procedure: We next performed ELISA assays using plasma samples from three different anti-ApoA-I autoantibody-positive patients from the cohort pre-incubated with Peptide F, a scrambled version of Peptide F (Table 1), or the stapled peptide F3L1 prior to addition to wells coated with ApoA-I (Fig 3).
# Plasma samples were preincubated (2 h, room temperature) with peptides at the indicated concentrations prior to addition to assay wells. Percent maximal ELISA signals were calculated as 100 × ([signal in well]-[mean background signal (uncoated well)])/ ([mean maximal signal (no peptide)]-[mean background signal]). Results are expressed as mean ± SD (n = 3).
# [4] = anti-ApoA-I IgG 40 μg/ml preincubated 2 h at room temperature with peptide 1 mg/mL (342 μM), nine donors, Luminex
substance,measurement,setting,value
"Ac-GLLPVLESFKVSFLSALEEYTKKLNT-NH2 (also: sidechain bridge or staple (positions not given here)) [Peptide F3L1, stapled version of Peptide F with a Glu-Lys lactam bridge]",inhibitory potency on anti-ApoA-I IgG-induced TNF-α,RAW cells,clearly a more potent inhibitor than Peptide F
same,alpha-helical content by CD,[1],increased alpha-helical content compared to the parent molecule
same,median IL-6 production,[2]; [4],19.2 pg/mL
same,median TNF-α production,[2]; [4],48.4 pg/mL
same,inhibition of anti-ApoA-I IgG-induced TNF-α and IL-6 release,"[2]; peptide preincubated with anti-ApoA-I IgG 2 h at room temperature, highest concentration 1 mg/mL (Fig 5, 6)",dose-dependent manner
same,cytokine production by peptide compared to control IgG,"[2]; peptide without anti-ApoA-I IgG, trend for TNF-α, p = 0.05",devoid of significant biological activity
same,inhibition of binding of anti-ApoA-I IgG to immobilized ApoA-I,[3],consistently improved binding inhibition with respect to Peptide F
